Measured values reported in PubChem BioAssay (NCI).
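Five concentrations, 48 hours, 96-well plates. The concentration for 50% growth inhibition is given as GI50. TGI: concentration producing complete growth inhibition.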

Legend:
Assay in all cases: DTP human tumour cell line panel, 48 h
BT-549 breast = tested on: BT-549 breast
HOP-62 NSCLC = tested on: HOP-62 NSCLC
HCC-2998 colon = tested on: HCC-2998 colon
MOLT-4 leukemia = tested on: MOLT-4 leukemia
NCI/ADR-RES ovarian = tested on: NCI/ADR-RES ovarian
SF-295 CNS = tested on: SF-295 CNS
NCI-H226 lung = tested on: NCI-H226 lung
U251 CNS = tested on: U251 CNS
A549 NSCLC = tested on: A549 NSCLC
MDA-MB-435 = tested on: MDA-MB-435
SF-268 CNS = tested on: SF-268 CNS
SK-MEL-5 melanoma = tested on: SK-MEL-5 melanoma
KM12 colon = tested on: KM12 colon
HS 578T breast = tested on: HS 578T breast
UACC-257 melanoma = tested on: UACC-257 melanoma
SN12C renal = tested on: SN12C renal
DU-145 prostate = tested on: DU-145 prostate
IGROV1 ovarian = tested on: IGROV1 ovarian
LOX IMVI melanoma = tested on: LOX IMVI melanoma
UACC-62 melanoma = tested on: UACC-62 melanoma
A498 renal = tested on: A498 renal
EKVX NSCLC = tested on: EKVX NSCLC
HL-60(TB) leukemia = tested on: HL-60(TB) leukemia
OVCAR-3 ovarian = tested on: OVCAR-3 ovarian
UO-31 renal = tested on: UO-31 renal
M14 melanoma = tested on: M14 melanoma
SNB-19 CNS = tested on: SNB-19 CNS
SNB-75 CNS = tested on: SNB-75 CNS
TK-10 renal = tested on: TK-10 renal
HCT-15 colon = tested on: HCT-15 colon
OVCAR-5 ovarian = tested on: OVCAR-5 ovarian
SK-MEL-28 melanoma = tested on: SK-MEL-28 melanoma
HCT-116 colon = tested on: HCT-116 colon
786-0 renal = tested on: 786-0 renal
MALME-3M melanoma = tested on: MALME-3M melanoma
SF-539 CNS = tested on: SF-539 CNS
NCI-H522 lung = tested on: NCI-H522 lung
OVCAR-8 ovarian = tested on: OVCAR-8 ovarian
MDA-MB-231 breast = tested on: MDA-MB-231 breast
OVCAR-4 ovarian = tested on: OVCAR-4 ovarian
SK-OV-3 ovarian = tested on: SK-OV-3 ovarian
RXF 393 renal = tested on: RXF 393 renal
HOP-92 NSCLC = tested on: HOP-92 NSCLC
CAKI-1 renal = tested on: CAKI-1 renal
HT29 colon = tested on: HT29 colon
MCF7 breast = tested on: MCF7 breast
K-562 leukemia = tested on: K-562 leukemia
SK-MEL-2 melanoma = tested on: SK-MEL-2 melanoma
COLO 205 colon = tested on: COLO 205 colon
SW-620 colon = tested on: SW-620 colon
SR leukemia = tested on: SR leukemia
RPMI-8226 leukemia = tested on: RPMI-8226 leukemia
T-47D breast = tested on: T-47D breast
ACHN renal = tested on: ACHN renal

CCCCC1(CN2CCOCC2)S/C(=N/c2nc(CC(=O)OCC)cs2)NC1=O (stereo not drawn)
GI50 (BT-549 breast): 41.8 µM
TGI (BT-549 breast): > 100 µM
GI50 (HOP-62 NSCLC): 44.7 µM
TGI (HOP-62 NSCLC): > 100 µM
GI50 (HCC-2998 colon): 35.9 µM
TGI (HCC-2998 colon): > 100 µM
GI50 (MOLT-4 leukemia): 27.7 µM
TGI (MOLT-4 leukemia): > 100 µM
GI50 (NCI/ADR-RES ovarian): 40.1 µM
TGI (NCI/ADR-RES ovarian): > 100 µM
GI50 (SF-295 CNS): 35.3 µM
TGI (SF-295 CNS): > 100 µM
GI50 (NCI-H226 lung): 38.6 µM
TGI (NCI-H226 lung): > 100 µM
GI50 (U251 CNS): 33.9 µM
TGI (U251 CNS): > 100 µM
GI50 (A549 NSCLC): 33.4 µM
TGI (A549 NSCLC): > 100 µM
GI50 (MDA-MB-435): 30.3 µM
TGI (MDA-MB-435): > 100 µM
GI50 (SF-268 CNS): 37.6 µM
TGI (SF-268 CNS): > 100 µM
GI50 (SK-MEL-5 melanoma): 24.2 µM
TGI (SK-MEL-5 melanoma): 75.2 µM
GI50 (KM12 colon): 27.7 µM
TGI (KM12 colon): > 100 µM
GI50 (HS 578T breast): 35.8 µM
TGI (HS 578T breast): > 100 µM
GI50 (UACC-257 melanoma): 40.4 µM
TGI (UACC-257 melanoma): > 100 µM
GI50 (SN12C renal): 35.8 µM
TGI (SN12C renal): > 100 µM
GI50 (DU-145 prostate): 27 µM
TGI (DU-145 prostate): > 100 µM
GI50 (IGROV1 ovarian): 55.3 µM
TGI (IGROV1 ovarian): > 100 µM
GI50 (LOX IMVI melanoma): 20.3 µM
TGI (LOX IMVI melanoma): 42.5 µM
GI50 (UACC-62 melanoma): 28.3 µM
TGI (UACC-62 melanoma): > 100 µM
GI50 (A498 renal): 41.5 µM
TGI (A498 renal): > 100 µM
GI50 (EKVX NSCLC): 38.9 µM
TGI (EKVX NSCLC): > 100 µM
GI50 (HL-60(TB) leukemia): 30.2 µM
TGI (HL-60(TB) leukemia): 62.5 µM
GI50 (OVCAR-3 ovarian): 21.2 µM
TGI (OVCAR-3 ovarian): 67.7 µM
GI50 (UO-31 renal): 33 µM
TGI (UO-31 renal): > 100 µM
GI50 (M14 melanoma): 22.8 µM
TGI (M14 melanoma): 67.3 µM
GI50 (SNB-19 CNS): 38.4 µM
TGI (SNB-19 CNS): > 100 µM
GI50 (SNB-75 CNS): 29.4 µM
TGI (SNB-75 CNS): > 100 µM
GI50 (TK-10 renal): 31.7 µM
TGI (TK-10 renal): 99.1 µM
GI50 (HCT-15 colon): 40 µM
TGI (HCT-15 colon): > 100 µM
GI50 (OVCAR-5 ovarian): 35.4 µM
TGI (OVCAR-5 ovarian): > 100 µM
GI50 (SK-MEL-28 melanoma): 38.4 µM
TGI (SK-MEL-28 melanoma): > 100 µM
GI50 (HCT-116 colon): 22 µM
TGI (HCT-116 colon): 63.1 µM
GI50 (786-0 renal): 37.9 µM
TGI (786-0 renal): > 100 µM
GI50 (MALME-3M melanoma): 25.4 µM
TGI (MALME-3M melanoma): > 100 µM
GI50 (SF-539 CNS): 29 µM
TGI (SF-539 CNS): 89.9 µM
GI50 (NCI-H522 lung): 32.1 µM
TGI (NCI-H522 lung): > 100 µM
GI50 (OVCAR-8 ovarian): 33.9 µM
TGI (OVCAR-8 ovarian): > 100 µM
GI50 (MDA-MB-231 breast): 25.8 µM
TGI (MDA-MB-231 breast): 74.2 µM
GI50 (OVCAR-4 ovarian): 33 µM
TGI (OVCAR-4 ovarian): > 100 µM
GI50 (SK-OV-3 ovarian): 25.9 µM
TGI (SK-OV-3 ovarian): > 100 µM
GI50 (RXF 393 renal): 27.6 µM
TGI (RXF 393 renal): 86.1 µM
GI50 (HOP-92 NSCLC): 32.9 µM
TGI (HOP-92 NSCLC): > 100 µM
GI50 (CAKI-1 renal): 29.9 µM
TGI (CAKI-1 renal): > 100 µM
GI50 (HT29 colon): 40 µM
TGI (HT29 colon): > 100 µM
GI50 (MCF7 breast): 34.4 µM
TGI (MCF7 breast): > 100 µM
GI50 (K-562 leukemia): 30.9 µM
TGI (K-562 leukemia): > 100 µM
GI50 (SK-MEL-2 melanoma): 29.7 µM
TGI (SK-MEL-2 melanoma): 89.2 µM
GI50 (COLO 205 colon): 30.1 µM
TGI (COLO 205 colon): > 100 µM
GI50 (SW-620 colon): 35.9 µM
TGI (SW-620 colon): > 100 µM
GI50 (SR leukemia): 26.2 µM
TGI (SR leukemia): 65.9 µM
GI50 (RPMI-8226 leukemia): 25.6 µM
TGI (RPMI-8226 leukemia): 80.6 µM
GI50 (T-47D breast): 41.5 µM
TGI (T-47D breast): > 100 µM
GI50 (ACHN renal): 33.9 µM
TGI (ACHN renal): > 100 µM
